Values quoted from earlier work in PMC12444507 (ACS Omega, 2025).

Test system: nirmatrelvir-resistant E166 V-carrying SARS-CoV-2^E166V
Settings: cited from earlier work

For `CC(C)(C)[C@H](NC(=O)C(F)(F)F)C(=O)N1C[C@H]2[C@@H]([C@H]1C(=O)N[C@@H](C[C@@H]1CCNC1=O)C(=O)c1nc3cc(F)ccc3s1)C2(C)C` [TKB272 (8)], the “antiviral activity against SARS-CoV-2^E166V” value is given as “substantial antiviral activity”.
